Data taken from patent US20260021147A1, “COMPOSITIONS AND METHODS FOR TREATING INFLAMMATORY DISEASE” (The Regents of the University of Michigan, priority 2022, published 2026).

What was measured:
[1] = Short chain fatty acids profiling of mouse feces by IC-MS; format: in vivo, mice; settings: allogeneic mice, day 20
Procedure: To determine the relative abundance of short chain fatty acids in mouse feces samples, extracts were prepared and analyzed by ultra-high resolution mass spectrometry (HRMS). Fecal pellets were homogenized with a Precellys Tissue Homogenizer. Metabolites were extracted using 1 mL ice-cold 0.1% Ammonium hydroxide in 80/20 (v/v) methanol/water. Extracts were centrifuged at 17,000 g for 5 min at 4° C., and supernatants were transferred to clean tubes, followed by evaporation to dryness under nitrogen. Dried extracts were reconstituted in deionized water, and 5 μL was injected for analysis by IC-MS. IC mobile phase A (MPA; weak) was water, and mobile phase B (MPB; strong) was water containing 100 mM KOH. A Thermo Scientific Dionex ICS-5000+ system included a Thermo IonPac AS11 column (4 μm particle size, 250×2 mm) with column compartment kept at 30° C. The autosampler tray was chilled to 4° C. The mobile phase flow rate was 360 μL/min, and the gradient elution program was: 0-5 min, 1% MPB; 5-25 min, 1-35% MPB; 25-39 min, 35-99% MPB; 39-49 min, 99% MPB; 49-50, 99-1% MPB. The total run time was 50 min. To assist the desolvation for better sensitivity, methanol was delivered by an external pump and combined with the eluent via a low dead volume mixing tee. Data were acquired using a Thermo Orbitrap Fusion Tribrid Mass Spectrometer under ESI negative ionization mode at a resolution of 240,000. […]

[2] = tested on: allogeneic mice (B6D2F1 recipients of B6 donor cells); test: Murine GvHD model (allo-HSCT): survival and GvHD histology; format: in vivo; settings: for severity of colonic GvHD: antibiotic in drinking water, colon collected day 20, vs control allogeneic mice
Procedure: In a murine model with a mucin-deficient mutate strain of BT, piperacillin/tazobactam was given at a concentration of 3.2 g/L in combination with vancomycin and metronidazole dosed 1.5 mg daily by oral gavage from days −16 to −12 relative to transplant.
D-(+)-xylose (X3877, Sigma-Aldrich) or D-(+)-glucose (G8270, Sigma-Aldrich) was dissolved in phosphate buffer pH 8.0 with meropenem or in water without meropenem and given at a concentration of 0.5% from days 13 to 28 after allo-HSCT.
Mice were transplanted as previously described (Hayase et al., 2017).
(§1) Pathology scores were quantified by a blinded pathologist. […] Sections were imaged using an Aperio AT2.

intestinal microbiota = test: 16S rRNA sequencing of fecal and mucosal microbiome in mice; format: in vivo
Procedure: Fecal samples which were collected from patients and mice and colonic mucosal samples, which were collected from mice were weighed before DNA isolation. […] The quality and quantity of the barcoded amplicons were assessed on an Agilent 4200 TapeStation system (Agilent) and Qubit Fluorometer (Thermo Fisher Scientific), and libraries were prepared after pooling at equimolar ratios. The final libraries were purified using QIAquick gel extraction kit (28706X4, Qiagen) and sequenced with a 2×250 base pair paired-end protocol on the Illumina MiSeq platform.
For differential abundance analysis, abundances of sequences belonging to taxonomical groups were included for analysis using the Mann-Whitney U test and adjusted for multiple comparisons using the method of Benjamini-Hochberg. Paired samples were analyzed using the Wilcoxon signed rank test with adjustment for multiple comparisons.

[3] = tested on: BT (MDA-JAX BT001) PUL transcripts; test: RNA sequencing of stool: PUL expression in BT; format: in vivo, Bacteroides thetaiotaomicron; settings: supplementation in meropenem-treated allogeneic mice
Procedure: Approximately 30 mg of stool was freshly collected in 700 μL of ice cold Qiazol containing 200 μL of 0.1 mm diameter Zirconia Silica beads (11079101z, BioSpec). Samples were bead beaten twice for 2 min with a 30 second interval recovery. Samples were then centrifuged at 12,000 g for 1 min and the supernatant was collected for RNA isolation using the RNeasy mini kit (74104, Qiagen). RNA was treated on column with DNase I (79254, Qiagen) to eliminate contaminating genomic DNA. RNA quantity and quality was determined using an Agilent 4200 TapeStation system (Agilent). 250 ng of total RNA from mouse stools was used to construct libraries using the Nugen Ovation Complete Prokaryotic RNA-Seq Systems (NuGen) or the Universal Prokaryotic RNA-Seq Library Preparation Kit (9367-32, Tecan) with Unique Dual Indexes (S02480-FG, Tecan), following the manufacturer's protocol. The cDNA libraries were sequenced on the Illumina MiSeq or NovaSeq 6000 system to produce either 1×300 bp single-end reads or 2×150 bp paired-end reads. […] The total reads of mouse stool samples were 950923±113406 (mean ±standard deviation) in FIG. 6A and 137623366±38865363 in FIG. 6G-H and 12G. […] Aligned mRNA expression changes were calculated using the Mann-Whitney U test in R software version 3.6.0 via RStudio version 1.2.1335. […]

[4] = tested on: mouse- and human-derived BT; test: Bacterial culture of BT with or without monosaccharide; format: cell-based, Bacteroides thetaiotaomicron; settings: carbohydrate-poor media, in vitro
Procedure: Mouse-derived BT (MDA-JAX BT001), Enterococcus faecalis (MDA-JAX EF001) and Clostridium disporicum (MDA-JAX CD001), Clostridium saudiense (MDA-JAX CS001), and Lachnospiraceae unclassified (MDA-JAX LS001) were isolated and cultured from mouse stool samples suspended in 1 ml of chilled 20% anaerobic glycerol in a Whitley anaerobic chamber (10% H2, 5% CO2 and 85% N2). Human-derived BT (ATCC 29148) was purchased from ATCC. Bacterial number was quantified using a Nexcelom Cellometer cell counter with SYTO™ BC dye and propidium iodide. For measuring MICs against meropenem, bacteria were cultured on BYE plates including 5% sterilized rumen fluid (Fisher Scientific) with MIC test strips (Liofilchem™ MTS™ Meropenem [MRP] 0.016-256 μg/mL, Fisher Scientific). Bacterial growth experiments were performed in a bacterial liquid media, BYEM10, composed of a hybrid of BHI and M10 supplemented with yeast extract (Table 4). Bacteria were cultured up to 48 hours at a starting concentration of 1×10^6 bacteria/ml in BYEM10 broth (pH 7.2) with and without 5 mg/ml of porcine gastric mucin (M1778, Sigma-Aldrich) with or without 0.5 mg/ml of D-(+)-xylose (X3877), D-(+)-mannose (M8574, Sigma-Aldrich) or D-(+)-glucose (G8270). Optical densities (OD600 nm) of bacterial cultures were measured with a BioTek EPOCH 2 plate reader.

colonic mucus layer = test: Colonic mucus thickness by PAS staining; format: in vivo, mice; settings: meropenem-treated allogeneic mice (FIG. 6, FIG. 12 titles)
Excerpt: as §1

SMILES	fecal levels of SCFAs [1]	severity of colonic GvHD [2]	abundances of BT (intestinal microbiota; day 20, compared to meropenem-treated mice)	compositional differences between luminal and mucosal samples (intestinal microbiota; treated allogeneic mice, PERMANOVA testing)	expression of ORF GH2_PUL89_16 [3]	growth of mouse- and human-derived BT [4]	overall survival ([2]; 0.5% xylose days 13 to 28, meropenem-treated allogeneic mice)	mucolytic activity / mucus-degrading function of BT (colonic mucus layer)
CO/N=C(\C(=O)N[C@@H]1C(=O)N2C(C(=O)[O-])=C(C[N+]3(C)CCCC3)CS[C@H]12)c1csc(N)n1 [cefepime]	did not show substantially reduced fecal levels of SCFAs	do not increase the severity of colonic GvHD	significantly lower abundances of BT	loss of compositional differences	–	–	–	–
C[C@H]1COc2c(N3CCN(C)CC3)c(F)cc3c(=O)c(C(=O)O)cn1c23 [levofloxacin]	–	do not increase the severity of colonic GvHD	–	–	–	–	–	–
O=C[C@H](O)[C@@H](O)[C@H](O)CO [xylose, D-(+)-xylose]	–	–	–	–	significantly downregulated	augmented	significantly improved the survival	suppressed
